# Experimental data taken from the supplement of paper PMC6723410.
# Tested on: GUMC-403
# Assay: viability at highest tested concentration (max response) relative to DMSO (% of DMSO control); higher = less cytotoxic
# Settings: library / dose series: MIPE library, 11-point 1:3 dilution; top concentration 46.1 µM; 48 h
# Outline: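 In 1536-well plates, 700 GUMC-403 papilloma cells per well, taken from a patient and grown by conditional reprogramming, were seeded in 5 μL F + Y medium and incubated overnight at 37 °C. Compounds were pinned in at 23 nL in an 11-point 1:3 series, and left for 48 h before CellTiter-Glo luminescence was read on a ViewLux against vehicle (100%) and empty (0%) wells. Reported values are viability at the highest tested concentration relative to vehicle control.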
row,SMILES,viability
1,C=CC[N+]1([C@H]2C[C@H]3[C@@H]4CC[C@H]5C[C@H](O)[C@@H](N6CCOCC6)C[C@]5(C)[C@H]4CC[C@]3(C)[C@H]2OC(C)=O)CCCC1,108
2,CC1CNc2c(cccc2[S+](=O)([O-])N[C@@H](CCCNC(=N)N)C(=O)N2CC[C@@H](C)C[C@@H]2C(=O)O)C1 (stereo partly specified),125
3,C[C@@H](NC(=O)c1ncnc(N)c1Cl)c1ncc(C(=O)Nc2cc(C(F)(F)F)c(Cl)cn2)s1,109
4,CC(C)N(CC[C@H](c1ccccc1)c1cc(CO)ccc1O)C(C)C,137
5,O=C1\C=C/C[C@@H]2[C@H]3CCCN4CCC[C@@H](CN12)[C@@H]34,108
6,O=C1c2c(O)cc(O)cc2O[C@H](c2cc(O)c(O)c(O)c2)[C@H]1O,115
7,CN1/C=C(\N=C(NC2=CC=C(C=C2)C(=O)N3CCOCC3)/C1=O)/C4=C(C)C(=CC=C4)NC(=O)C5=CC=C(C=C5)C(C)(C)C,117
8,CC(C)N(CCCNC(=O)Nc1ccc(C(C)(C)C)cc1)C[C@H]1O[C@@H](n2cc(Br)c3c(N)ncnc32)[C@H](O)[C@@H]1O,89.1
9,Cn1c(=O)c2c(ncn2CC(O)CO)n(C)c1=O (stereo unspecified),138
10,COc1ccc(C(=O)CC(=O)c2ccc(C(C)(C)C)cc2)cc1,126
11,C/C(O)=C(\C#N)C(=O)Nc1cc(Br)ccc1Br,101
12,CO/N=C(/C(=O)N[C@@H]1C(=O)N2C(C(=O)O)=C(CSC(=O)c3ccco3)CS[C@H]12)c1csc(N)n1,172
13,COc1cc2nc(N(C)CCCNC(=O)C3CCCO3)nc(N)c2cc1OC (stereo unspecified),116
14,CC1Cc2ccccc2N1NC(=O)c1ccc(Cl)c([S+](N)(=O)[O-])c1 (stereo unspecified),105
15,COC/1=C/C=C2\C(=C/C1=O)[C@H](CCC3=CC(=C(OC)C(=C23)OC)OC)NC(C)=O,90.8
16,COc1cc2nc(-c3cc(F)ccc3O)nc(N[C@@H]3CNC[C@H]3C(C)(C)O)c2cc1OC,59.9

row,SMILES,viability
1,Cc1cc(O)c2c3c4c(cc(O)c13)C(C)(C)C(=O)c1c(O)cc(O)c(c1-4)C2=O,104
2,COC(=O)N[C@H](C(=O)N1CCC[C@H]1c1ncc(-c2ccc(-c3ccc(-c4cnc([C@@H]5CCCN5C(=O)[C@@H](NC(=O)OC)C(C)C)[nH]4)cc3)cc2)[nH]1)C(C)C,138
3,O=C(Nc1ccccc1-c1cn2c(CN3CCNCC3)csc2n1)c1cnc2ccccc2n1,81.3
4,COc1cc(CCc2cc(NC(=O)c3ccc(N4C[C@@H](C)N[C@@H](C)C4)cc3)n[nH]2)cc(OC)c1,81.8
5,CC(=O)O.Cc1c(-c2ccc(O)cc2)n(Cc2ccc(OCCN3CCCCCC3)cc2)c2ccc(O)cc12,130
6,CN1CCCC(CC1)N2\N=C(CC3=CC=C(Cl)C=C3)/C4=C(C=CC=C4)C2=O (stereo unspecified),78.8
7,NC(=O)c1ccc(-c2nc(-c3ccc4c(c3)OCO4)c(-c3ccccn3)[nH]2)cc1,126
8,COc1ccc(C2Sc3ccccc3N(CCN(C)C)C(=O)C2OC(C)=O)cc1 (stereo unspecified),110
9,CO[C@H]1C[C@@H]2CC[C@@H](C)[C@@](O)(O2)C(=O)C(=O)N2CCCC[C@H]2C(=O)O[C@H]([C@@H](C)C[C@@H]2CC[C@@H](O)[C@H](OC)C2)CC(=O)[C@H](C)/C=C(\C)[C@@H](O)[C@@H](OC)C(=O)[C@H](C)C[C@H](C)/C=C/C=C/C=C/1C,106
10,COc1cc2ncnc(Nc3cccc(Cl)c3)c2cc1OC,98.8
11,Cc1cnc(NC(=O)Nc2cc(Br)c(C)cc2OC[C@@H]2CNCCO2)cn1,110
12,CC(Cc1ccc(O)c(O)c1)(NN)C(=O)O (stereo unspecified),96
13,COc1cccc2c1CCCC2CCCN1CCN(C2CCCCC2)CC1 (stereo unspecified),112
14,CC[C@H]1OC(=O)[C@H](C)[C@@H](O[C@H]2C[C@@](C)(OC)[C@@H](O)[C@H](C)O2)[C@H](C)[C@@H](O[C@@H]2O[C@H](C)C[C@H](N(C)C)[C@H]2O)[C@](C)(OC)C[C@@H](C)C(=O)[C@H](C)[C@@H](O)[C@]1(C)O,112
15,NC(=O)NO,51.9
